According to patent publication US9199983B2, “3-aryl-6-aryl-[1,2,4]triazolo[4,3-α]pyridines as inhibitors of cell proliferation and the use thereof” (priority 2010, dated 2015):
pEC50, pIC50: −log10 of the molar value.

How the values were obtained:
[1] = test system: liver cancer cell line HepG2; assay: MTT cancer cell cytotoxicity assay, HepG2; assay type: cell-based, human; conditions: HepG2 cells, 48-72 h
Description: (§1) Identification of 3-(2-methoxyphenyl)-6-(4-methoxyphenyl)-[1,2,4]triazolo[4,3-a]pyridine and analogs as inhibitors of cell proliferation that were evaluated with standard MTT cancer cell cytotoxicity assay (IC50)
(§2) Human lung cancer cell line A549, breast cancer cell line T47D, liver cancer cell lines HepG2 and SMMC7721 as well as a mouse melanoma cell line B16F10 were used in the study. The cells were cultured in corresponding growth media recommended by American Type Culture Collection (ATCC) with the supplementation of penicillin G (100 U/ml)/streptomycin (100 µg/ml), and 10% fetal bovine serum (Hangzhou Sijiqing Biological Engineering Materials, Co., Ltd. China) at 37° C. in a humidified atmosphere containing 5% CO2. Cells at about 80% confluency were harvested by trypsinization. Cells were centrifuged, re-suspended in fresh growth media and counted. Corresponding numbers of cells were seeded to 96-well cell culture plates (HepG2 cell, T-47D and A549 cells at 3000 cells/well, SMMC-7721 cells at 5000 cells/well and B16F10 cells at 2000 cells/well) in a total volume of […]. Cells were incubated in CO2 incubator over night to allow the cells to attach. In next day, […] of medium containing testing (from 10 μM to 1 nM) or reference compounds was added to each well of the cells. Media without compound were used as 100% control. Cells were treated with each concentration of compounds in triplicates to ensure data accuracy. Cells were incubated with compounds in CO2 incubator for an additional 48-72 h at 37° C. After incubation, cells were removed from the CO2 incubator and […] of 5 mg/ml MTT (3-(4,5-dimethylthiazole-2-yl)-2,5-diphenyltetrazoliumbromide, Sigma) solution in PBS was added to each well. Cells were returned to CO2 incubator and incubated for additional 4 h. After the incubation, media were removed by aspiration and […] DMSO was added to each well. Plates were sealed with aluminum foil and shaked mildly on an orbital shaker for 10 min at room temperature. The absorption was measured at 550 nm with a plate reader (Varioskan Flash, Thermo Fisher Scientific) with 660 nm reading used as background control. The relative absorbance readings were calculated by subtracting readings at 660 nm from that at 550 nm. The relative absorbance was plotted again the concentrations of the testing compounds and the plots were fitted with a one-site lg(IC50) equation using Prism 5 software (GraphPad Software, Inc). The equation used in the curve fitting is as follows: relative absorbance reading=background reading+(maximal reading−brackground reading)/(1+10 ^(compound concentration-log IC50)). The background reading used in the calculation was obtained with 100% cell death using a reference anticancer drug, whereas the maximal reading was obtained in the well with no added compound. The IC50 value calculated from the equation represents the cytotoxic potency of a particular compound.

[2] = test system: breast cancer cell line T47D; assay: MTT cancer cell cytotoxicity assay, T47D; assay type: cell-based, human; conditions: T47D cells, 48-72 h
Description: as §1, §2

[3] = test system: liver cancer cell line SMMC7721; assay: MTT cancer cell cytotoxicity assay, SMMC7721; assay type: cell-based, human; conditions: 48-72 h
Description: as §1, §2

[4] = test system: mouse melanoma cell line B16F10; assay: MTT cancer cell cytotoxicity assay, B16F10; assay type: cell-based; conditions: 48-72 h
Description: as §1, §2

[5] = test system: Human lung cancer cell line A549; assay: MTT cancer cell cytotoxicity assay, A549; assay type: cell-based; conditions: A549 cells, 48-72 h
Description: as §1, §2

[6] = test system: caspase-3 activation; assay: Caspase-3 activation (apoptosis induction) in T-47D cells; assay type: cell-based; conditions: Homo sapiens; T47D cells, 24 h treatment; read-out: EC50 to induce caspase-3 activation, T47D
Description: Identification of 3-(2-methoxyphenyl)-6-(4-methoxyphenyl)-[1,2,4]triazolo[4,3-a]pyridine and analogs as inducers of apoptosis in solid tumor cells
Human breast cancer cell line T-47D and lung cancer cell line A549, growing in DMEM/F12+10% FBS media were seeded to a density of 20000 cells/well in 96-well cell culture plate and grew overnight (18-24 h) in CO2 cell culture incubator at 37° C. Next day the medium were removed by aspiration and […] fresh growth media was added to each well followed by […] of growth media containing 10× concentration of reference or testing compounds with 10% DMSO. Twenty four hours later, cell culture plates were centrifuged at 1000 g for 5 min and the supernatant was removed by emptying contents into a reservoir. Fifty μl of Lysis Buffer (10 mM Tris, pH7.5, 0.1M NaCl, 1 Mm EDTA, 0.01% Triton X-100) was added to each well and the plates were incubated with gentle agitation on an orbital shaker at 4° C. for 30 min. The plates were then centrifuged at 1000 g for 10 min at 4° C. and 20 μl of the supernatant was transferred from each well to a corresponding well in a black 384-well. Twenty μl of caspase-3 assay buffer (20 mM PIPES, pH7.4, 4 Mm EDTA and 0.2% CHAPS) containing 20 μM fluorogenic caspase-3 substrate ((Ac-DEVD)2-R110, AnaSpec Cat #60304-5) was added to each well. The samples were mixed by agitation and incubated at 37° C. for 3 h. The fluorescent intensity of each well was read on a fluorescent plate reader (Varioskan Flash, Thermo Fisher Scientific) with excitation wavelength at 496 nm and emission wavelength at 520 nm. The activity of compounds on caspase-3 activation was determined by plotting the relative fluorescent unit (RFU) against the testing concentrations of the compounds. The EC50 values were determined by fitting the above responding curves into Prism sigmoidal dose-response equation (GraphPad Software, Inc).

[7] = Homo sapiens, SMMC-7721, SMMC7721 cells
[8] = Mus musculus, B16-F10, B16F10 cells

Row | pEC50 [6] | SMILES | pIC50 ([1]; Homo sapiens) | pIC50 ([2]; Homo sapiens) | pIC50 [3, 7] | pIC50 [4, 8] | pIC50 ([5]; Homo sapiens) | pIC50 [1] | pIC50 [2] | pIC50 ([3]; SMMC7721 cells) | pIC50 ([4]; B16F10 cells) | pIC50 [5]
1 | – | COc1cccc(-c2ccc3nnc(-c4ccccc4OC)n3c2)c1 [Example 2, 3-(2-Methoxyphenyl)-6-(3-methoxyphenyl)-[1,2,4]triazolo[4,3-a]pyridine] | 6.72 | 6.74 | 7.10 | 6.82 | 6.60 | – | – | – | – | –
2 | – | CNc1ccc(-c2ccc3nnc(-c4ccc(C)cc4OC)n3c2)cc1 [Example 92, 6-(4-Methylaminophenyl)-3-(4-methyl-2-methoxyphenyl)-[1,2,4]triazolo[4,3-a]pyridine] | 7.64 | 8.06 | 7.64 | 8.11 | 7.96 | – | – | – | – | –
3 | 6.93 | COc1ccc(-c2ccc3nnc(-c4ccc(OC)cc4OC)n3c2)cc1 [Example 71, 3-(2,4-Dimethoxyphenyl)-6-(4-methoxyphenyl)-[1,2,4]triazolo[4,3-a]pyridine] | 7.82 | 7.66 | 8.06 | – | 7.80 | – | – | – | – | –
4 | – | COc1ccccc1-c1nnc2ccc(-c3ccc(C(F)(F)F)cc3)cn12 [Example 27, 3-(2-Methoxyphenyl)-6-(4-trifluoromethylphenyl)-[1,2,4]triazolo[4,3-a]pyridine] | 5.58 | 5.37 | 5.65 | 5.42 | 5.02 | – | – | – | – | –
5 | – | CCOc1ccc(-c2ccc3nnc(-c4ccccc4OC)n3c2)cc1 [Example 38, 6-(4-Ethoxyphenyl)-3-(2-methoxyphenyl)-[1,2,4]triazolo[4,3-a]pyridine] | 7.10 | 7.13 | 7.57 | 6.89 | 7.31 | – | – | – | – | –
6 | – | COc1ccccc1-c1nnc2ccc(-c3ccc(OC(C)C)cc3)cn12 [Example 6, 6-(4-Isopropoxyphenyl)-3-(2-methoxyphenyl)-[1,2,4]triazolo[4,3-a]pyridine] | 5.93 | 6.16 | 6.27 | 6.23 | 5.97 | – | – | – | – | –
7 | – | COc1cc(C)ccc1-c1nnc2ccc(-c3ccc(C)c(N)c3)cn12 [Example 91, 6-(3-Amino-4-methylphenyl)-3-(4-methyl-2-methoxyphenyl)-[1,2,4]triazolo[4,3-a]pyridine] | 7.41 | 7.51 | 7.89 | 7.64 | 7.38 | – | – | – | – | –
8 | – | COc1cc(Cl)ccc1-c1nnc2ccc(-c3ccc(C)c(N)c3)cn12 [Example 90, 6-(3-Amino-4-methylphenyl)-3-(4-chloro-2-methoxyphenyl)-[1,2,4]triazolo[4,3-a]pyridine] | 8.27 | 8.26 | 8.64 | 8.34 | 8.15 | – | – | – | – | –
9 | – | COc1ccc(-c2ccc3nnc(-c4ccc(C(F)(F)F)cc4OC)n3c2)cc1 [Example 60, 3-(2-Methoxy-4-trifluoromethylphenyl)-6-(4-methoxyphenyl)-[1,2,4]triazolo[4,3-a]pyridine] | 7.39 | 7.17 | 7.74 | 7.43 | 7.04 | – | – | – | – | –
10 | – | CCc1ccc(-c2ccc3nnc(-c4ccccc4OC)n3c2)cc1 [Example 7, 6-(4-Ethylphenyl)-3-(2-methoxyphenyl)-[1,2,4]triazolo[4,3-a]pyridine] | 6.87 | 6.80 | 7.23 | 6.66 | 6.66 | – | – | – | – | –
11 | – | COc1ccccc1-c1nnc2ccc(-c3ccc(OC(F)(F)F)cc3)cn12 [Example 11, 3-(2-Methoxyphenyl)-6-(4-trifluoromethoxyphenyl)-[1,2,4]trizolo[4,3-a]pyridine] | – | – | – | – | – | 5.28 | < 5.00 | 5.54 | 5.30 | < 5.00
12 | – | COc1ccccc1-c1nnc2ccc(-c3ccc([N+](=O)[O-])cc3)cn12 [Example 39, 3-(2-Methoxyphenyl)-6-(4-nitrophenyl)-[1,2,4]triazolo[4,3-a]pyridine] | 5.49 | < 5.00 | 5.26 | < 5.00 | 5.52 | – | – | – | – | –
13 | – | CCCCCCOc1ccc(-c2ccc3nnc(-c4ccccc4OC)n3c2)cc1 [Example 34, 6-(4-Hexyloxyphenyl)-3-(2-methoxyphenyl)-[1,2,4]triazolo[4,3-a]pyridine] | < 5.00 | < 5.00 | < 5.00 | < 5.00 | < 5.00 | – | – | – | – | –
14 | – | CNc1ccc(-c2ccc3nnc(-c4ccc(Cl)cc4OC)n3c2)cc1 [Example 88, 3-(4-Chloro-2-methoxyphenyl)-6-(4-methylaminophenyl)-[1,2,4]triazolo[4,3-a]pyridine] | 8.22 | 8.44 | 8.74 | 8.29 | 8.36 | – | – | – | – | –
15 | – | COc1ccccc1-c1nnc2ccc(-c3ccc(OC)c([N+](=O)[O-])c3)cn12 [Example 40, 6-(4-Methoxy-3-nitrophenyl)-3-(2-methoxyphenyl)-[1,2,4]triazolo[4,3-a]pyridine] | 5.61 | 6.05 | 7.14 | < 5.00 | 5.58 | – | – | – | – | –
16 | – | COc1ccccc1-c1nnc2ccc(-c3ccccc3)cn12 [Example 24, 3-(2-Methoxyphenyl)-6-phenyl-[1,2,4]triazolo[4,3-a]pyridine] | < 5.00 | < 5.00 | < 5.00 | < 5.00 | < 5.00 | – | – | – | – | –
17 | – | COc1ccccc1-c1nnc2ccc(-c3ccc(C)c(F)c3)cn12 [Example 33, 6-(3-Fluoro-4-methylphenyl)-3-(2-methoxyphenyl)-[1,2,4]triazolo[4,3-a]pyridine] | 6.11 | 6.09 | 6.79 | – | 6.20 | – | – | – | – | –
18 | – | COc1ccc(-c2ccc3nnc(-c4ccc(OC)cc4)n3c2)cc1 [Example 64, 3,6-Bis(4-methoxyphenyl)-[1,2,4]triazolo[4,3-a]pyridine] | 6.25 | 6.47 | 6.82 | – | 6.19 | – | – | – | – | –
19 | – | COc1ccccc1-c1ccc2nnc(-c3ccccc3OC)n2c1 [Example 3, 3,6-Bis(2-methoxyphenyl)-[1,2,4]triazolo[4,3-a]pyridine] | < 5.00 | < 5.00 | < 5.00 | < 5.00 | < 5.00 | – | – | – | – | –
20 | – | COc1ccc(-c2ccc3nnc(-c4ccccc4N(C)C)n3c2)cc1 [Example 80, 3-(2-Dimethylaminophenyl)-6-(4-methoxyphenyl)-[1,2,4]triazolo[4,3-a]pyridine] | 7.09 | 7.21 | 7.46 | – | 6.93 | – | – | – | – | –
